Test results: PubChem BioAssay (NCI)
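Cells were grown in 96-well plates and exposed to each compound for 48 hours at five concentrations; endpoints were interpolated linearly between bracketing concentrations, or set to the highest concentration if not reached. GI50 = concentration required for 50% inhibition of growth. TGI marks complete inhibition of growth.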

Legend:
Experiment in all cases: DTP human tumour cell line panel, 48 h
[1] = tested on: SK-MEL-2 melanoma
[2] = tested on: U251 CNS
[3] = tested on: HCT-116 colon
[4] = tested on: HL-60(TB) leukemia
[5] = tested on: MDA-MB-435
[6] = tested on: SF-295 CNS
[7] = tested on: PC-3 prostate
[8] = tested on: HOP-62 NSCLC
[9] = tested on: SW-620 colon
[10] = tested on: LOX IMVI melanoma
[11] = tested on: COLO 205 colon
[12] = tested on: A549 NSCLC
[13] = tested on: NCI-H460 lung
[14] = tested on: OVCAR-8 ovarian
[15] = tested on: SR leukemia
[16] = tested on: DU-145 prostate
[17] = tested on: NCI/ADR-RES ovarian
[18] = tested on: UO-31 renal
[19] = tested on: BT-549 breast
[20] = tested on: RXF 393 renal
[21] = tested on: ACHN renal
[22] = tested on: MDA-MB-231 breast
[23] = tested on: SK-MEL-28 melanoma
[24] = tested on: TK-10 renal
[25] = tested on: KM12 colon
[26] = tested on: 786-0 renal
[27] = tested on: OVCAR-4 ovarian
[28] = tested on: T-47D breast
[29] = tested on: SF-268 CNS
[30] = tested on: NCI-H522 lung
[31] = tested on: OVCAR-5 ovarian
[32] = tested on: EKVX NSCLC
[33] = tested on: SK-OV-3 ovarian
[34] = tested on: NCI-H226 lung
[35] = tested on: OVCAR-3 ovarian
[36] = tested on: HS 578T breast
[37] = tested on: IGROV1 ovarian
[38] = tested on: RPMI-8226 leukemia
[39] = tested on: HCT-15 colon
[40] = tested on: UACC-62 melanoma
[41] = tested on: UACC-257 melanoma
[42] = tested on: SN12C renal
[43] = tested on: HCC-2998 colon
[44] = tested on: SK-MEL-5 melanoma
[45] = tested on: SF-539 CNS
[46] = tested on: SNB-75 CNS
[47] = tested on: K-562 leukemia
[48] = tested on: SNB-19 CNS
[49] = tested on: MOLT-4 leukemia
[50] = tested on: CAKI-1 renal
[51] = tested on: M14 melanoma

Compound: C[C@@H]1O[C@@H](OC[C@H]2O[C@@H](OCCc3ccc(O)c(O)c3)[C@H](O)[C@@H](O)[C@@H]2OC(=O)/C=C/c2ccc(O)c(O)c2)[C@H](O)[C@H](O)[C@H]1O
- GI50 [1]: > 100 µM
- TGI [1]: > 100 µM
- GI50 [2]: > 100 µM
- TGI [2]: > 100 µM
- GI50 [3]: 50.5 µM
- TGI [3]: > 100 µM
- GI50 [4]: > 100 µM
- TGI [4]: > 100 µM
- GI50 [5]: > 100 µM
- TGI [5]: > 100 µM
- GI50 [6]: > 100 µM
- TGI [6]: > 100 µM
- GI50 [7]: > 100 µM
- TGI [7]: > 100 µM
- GI50 [8]: > 100 µM
- TGI [8]: > 100 µM
- GI50 [9]: > 100 µM
- TGI [9]: > 100 µM
- GI50 [10]: > 100 µM
- TGI [10]: > 100 µM
- GI50 [11]: > 100 µM
- TGI [11]: > 100 µM
- GI50 [12]: > 100 µM
- TGI [12]: > 100 µM
- GI50 [13]: > 100 µM
- TGI [13]: > 100 µM
- GI50 [14]: > 100 µM
- TGI [14]: > 100 µM
- GI50 [15]: 93.8 µM
- TGI [15]: > 100 µM
- GI50 [16]: 36.8 µM
- TGI [16]: > 100 µM
- GI50 [17]: 74.3 µM
- TGI [17]: > 100 µM
- GI50 [18]: > 100 µM
- TGI [18]: > 100 µM
- GI50 [19]: 24.5 µM
- TGI [19]: 54.3 µM
- GI50 [20]: > 100 µM
- TGI [20]: > 100 µM
- GI50 [21]: > 100 µM
- TGI [21]: > 100 µM
- GI50 [22]: > 100 µM
- TGI [22]: > 100 µM
- GI50 [23]: > 100 µM
- TGI [23]: > 100 µM
- GI50 [24]: > 100 µM
- TGI [24]: > 100 µM
- GI50 [25]: > 100 µM
- TGI [25]: > 100 µM
- GI50 [26]: > 100 µM
- TGI [26]: > 100 µM
- GI50 [27]: > 100 µM
- TGI [27]: > 100 µM
- GI50 [28]: > 100 µM
- TGI [28]: > 100 µM
- GI50 [29]: > 100 µM
- TGI [29]: > 100 µM
- GI50 [30]: > 100 µM
- TGI [30]: > 100 µM
- GI50 [31]: > 100 µM
- TGI [31]: > 100 µM
- GI50 [32]: > 100 µM
- TGI [32]: > 100 µM
- GI50 [33]: > 100 µM
- TGI [33]: > 100 µM
- GI50 [34]: > 100 µM
- TGI [34]: > 100 µM
- GI50 [35]: > 100 µM
- TGI [35]: > 100 µM
- GI50 [36]: > 100 µM
- TGI [36]: > 100 µM
- GI50 [37]: > 100 µM
- TGI [37]: > 100 µM
- GI50 [38]: 12.2 µM
- TGI [38]: 50.9 µM
- GI50 [39]: > 100 µM
- TGI [39]: > 100 µM
- GI50 [40]: > 100 µM
- TGI [40]: > 100 µM
- GI50 [41]: > 100 µM
- TGI [41]: > 100 µM
- GI50 [42]: > 100 µM
- TGI [42]: > 100 µM
- GI50 [43]: 69.3 µM
- TGI [43]: > 100 µM
- GI50 [44]: > 100 µM
- TGI [44]: > 100 µM
- GI50 [45]: > 100 µM
- TGI [45]: > 100 µM
- GI50 [46]: > 100 µM
- TGI [46]: > 100 µM
- GI50 [47]: > 100 µM
- TGI [47]: > 100 µM
- GI50 [48]: > 100 µM
- TGI [48]: > 100 µM
- GI50 [49]: > 100 µM
- TGI [49]: > 100 µM
- GI50 [50]: > 100 µM
- TGI [50]: > 100 µM
- GI50 [51]: > 100 µM
- TGI [51]: > 100 µM
